Test results reported in patent US20250275981A1, “HOMOHARRINGTONINE AND PACLITAXEL COMBINATION FOR THE TREATMENT OF BREAST CANCER” (priority 2022, published 2025).
Where two headings read alike, the source gives them in different places.

How the values were obtained:
MCF10A cells = system: MCF10A cells
Method: Cells were authenticated by the supplier (http://www.ATCC.org) and cultured as recommended by ATCC for less than six months from the time of resuscitation. HCC1806, HCC1428 and T47D cells stably expressing triple hemagglutinin (HA)-tagged CREB3L1 (HA-CREB3L1) have been described and characterized previously.
Cells were allowed to attach and grow at 37° C. and 5% CO2. The following day the media was carefully removed from each well and replaced with drug-containing media in triplicate wells, again using the ASSIST PLUS. After 4 days of drug treatment cells were stained with Hoechst and ImageIT® Dead Green to quantify total and live cells as detailed below.
Images of each well of the 384-well plates were acquired using a Thermo Scientific® CellInsight® CX7 High Content Screening (HCS) Platform. Nine fields of view were captured using a 10×(0.4 NA) air objective lens. Images were analyzed using Thermo Scientific HCS Studio® 3 Cell Analysis Software using the Spot Detector bio-application (Cellomics®). Total cells were identified and counted by their Hoechst-stained nuclei at 386 nm (blue) channel 1 (Ch1) and dead cells were quantified from the ImageIT® Dead Green on the 485 nm wavelength (green) channel 2 (Ch2). […] The test well total live cell count was divided by the average of the corresponding solvent control total live cell count, giving the percentage cell viability (% viability). The mean±standard error of the mean (SEM) of the % viability of each set of triplicate wells was determined.
Drug titration experiments were carried out as described for the secondary drug screens, except a range of drug concentrations were tested. […] EC values were determined using PRISM software (GraphPad, v9.2.0) using non-linear curve fit. A student's t-test was used to determine statistically significant differences between the EC values for the two cell lines. Significance was defined as p<0.05.

[1] = system: anti-apoptotic proteins, including MCL-1, BCL-2 and surviving; conditions: several TNBC cell lines; reference [21]; cited from earlier work
[2] = system: MDA-MB-231 TNBC xenografts; conditions: cited from earlier work
T47D + HA-CREB3L1 = experiment: Cell viability drug titration (EC50), 4 days of drug treatment; type: cell-based; conditions: Homo sapiens, 96 h
Source text: (§1) Significance was defined as p<0.05.

T47D = experiment: as above; type: cell-based; conditions: Homo sapiens, 96 h
Source text: as §1

BT549 = experiment: as above; type: cell-based; conditions: Homo sapiens, BT-549, 96 h
Source text: as §1

HCC38 = experiment: as above; type: cell-based; conditions: Homo sapiens
Source text: as §1

MCF7 = experiment: as above; type: cell-based; conditions: Homo sapiens
Source text: as §1

Hs578T = experiment: as above; type: cell-based; conditions: Homo sapiens, Hs-578T, 96 h
Source text: as §1

HCC1428 + HA-CREB3L1 = experiment: as above; type: cell-based; conditions: Homo sapiens
Source text: as §1

HCC1395 = experiment: as above; type: cell-based; conditions: Homo sapiens
Source text: as §1

ZR-75-1 = experiment: as above; type: cell-based; conditions: Homo sapiens
Source text: as §1

HCC1806+HA-CREB3L1 cells = experiment: as above; type: cell-based; conditions: Homo sapiens, 96 h, single agent
Source text: as §1

MDA-MB-436 = experiment: as above; type: cell-based; conditions: Homo sapiens
Source text: as §1

MDA-MB-157 = experiment: as above; type: cell-based; conditions: Homo sapiens, MDA-MB-157, 96 h
Source text: as §1

HCC1428 = experiment: as above; type: cell-based; conditions: for drug sensitivity of HCC1428 as compared to the corresponding CREB3L1-expressing cells: HCC1428 vs HCC1428 + HA-CREB3L1; for EC50: Homo sapiens
Source text: as §1

HCC1806 cells = experiment: cells; type: cell-based
Source text: as §1

TNBC = conditions: combined with docetaxel, reference [23]; cited from earlier work
[3] = T47D + HA-CREB3L1, single agent, 4 days, read-out: EC50
[4] = T47D parental (Luminal A, ER+), single agent, 4 days, read-out: EC50
[5] = BT549 parental (TNBC), single agent, 4 days, read-out: EC50
[6] = 96 h, HCC38 parental (TNBC), single agent, 4 days, read-out: EC50
[7] = 96 h, MCF7 parental (Luminal A, ER+), single agent, 4 days, read-out: EC50
[8] = Hs578T parental (TNBC), single agent, 4 days, read-out: EC50
[9] = 96 h, HCC1428 + HA-CREB3L1, single agent, 4 days, read-out: EC50
[10] = 96 h, HCC1395 parental (TNBC), single agent, 4 days, read-out: EC50
[11] = 96 h, ZR-75-1 parental (Luminal A, ER+), single agent, 4 days, read-out: EC50
[12] = 96 h, MDA-MB-436 parental (TNBC), single agent, 4 days, read-out: EC50
[13] = 96 h, HCC1428 parental (Luminal A, ER+), single agent, 4 days, read-out: EC50
[14] = Homo sapiens, HCC1806, 96 h, HCC1806 parental (CREB3L1-deficient TNBC), single agent, 4 days of drug treatment, read-out: EC50

SMILES: COC(=O)C[C@](O)(CCCC(C)(C)O)C(=O)O[C@@H]1C(OC)=C[C@]23CCCN2CCc2cc4c(cc2[C@H]13)OCO4 [Homoharringtonine, 1-((1S,3aR,14bS)-2-Methoxy-1,5,6,8,9,14b-hexahydro-4H-cyclopenta(a)(1,3)dioxolo(4,5-h)pyrrolo (2,1-b)(3)benzazepin-1-yl) 4-methyl (2R)-2-hydroxy-2-(4-hydroxy-4-methylpentyl)butanedioate]
- cytotoxicity towards non-tumorigenic MCF10A cells as compared to HCC1806 cells (MCF10A cells): similar
- expression of anti-apoptotic proteins, including MCL-1, BCL-2 and surviving [1]: rapidly reduce the expression
- tumor growth ([2]; MDA-MB-231 TNBC xenografts, mice, reference [21]): reduced tumor growth
- general toxicity for the mice ([2]; mouse, in vivo): without general toxicity
- EC50 (T47D + HA-CREB3L1; [3]): 88 ± 55 nM
- EC50 (T47D; [4]): 400 ± 180 nM
- EC50 (BT549; [5]): 89 ± 10 nM
- EC50 (HCC38; [6]): 58 ± 10 nM
- EC50 (MCF7; [7]): 18 ± 9 nM
- EC50 (Hs578T; [8]): 42 ± 24 nM
- EC50 (HCC1428 + HA-CREB3L1; [9]): 10 ± 3 nM
- EC50 (HCC1395; [10]): 104 ± 31 nM
- EC50 (ZR-75-1; [11]): 117 ± 35 nM
- EC50 (HCC1806+HA-CREB3L1 cells): 42 ± 7 nM
- EC50 (MDA-MB-436; [12]): 33 ± 36 nM
- EC50 (MDA-MB-157; read-out: EC50): 7.5 ± 1.2 nM
- drug sensitivity of HCC1428 as compared to the corresponding CREB3L1-expressing cells (HCC1428): the opposite was true
- EC50 (HCC1428; [13]): 9 ± 3 nM
- EC50 (HCC1806 cells; [14]): 29 nM
- cytotoxicity towards CREB3L1-deficient HCC1806 as compared to HCC1806+HA-CREB3L1 cells (HCC1806 cells; drug titration, 4 days, FIG. 2): showed a preference for killing the more metastatic CREB3L1-deficient HCC1806 TNBC cells

SMILES: COc1cccc2c1C(=O)c1c(O)c3c(c(O)c1C2=O)C[C@@](O)(C(=O)CO)C[C@@H]3O[C@H]1C[C@H](N)[C@H](O)[C@H](C)O1 [Doxorubicin, doxorubicin]
- EC50 (HCC1806+HA-CREB3L1 cells): 17 ± 6 nM
- EC50 (HCC1806 cells; HCC1806 parental (CREB3L1-deficient TNBC), single agent, 4 days of drug treatment, read-out: EC50): 13.2 nM
- EC50 (HCC1806 cells; [14]): 13 ± 4 nM

SMILES: CC(=O)O[C@H]1C(=O)[C@@]2(C)[C@H]([C@H](OC(=O)c3ccccc3)[C@]3(O)C[C@H](OC(=O)[C@H](O)[C@@H](NC(=O)c4ccccc4)c4ccccc4)C(C)=C1C3(C)C)[C@]1(OC(C)=O)CO[C@@H]1C[C@@H]2O [Paclitaxel, (2α,4α,5β,7β,10β,13α)-4, 10-Bis(acetyloxy)-13-{[(2R,3S)-3-(benzoylamino)-2-hydroxy-3-phenylpropanoyl]oxy}-1,7-dihydroxy-9-oxo-5,20-epoxytax-11-en-2-yl benzoate]
- EC50 (HCC38; [6]): 2.4 nM
- EC50 (Hs578T; [8]): 7.4 nM
- EC50 (HCC1395; [10]): 12 nM
- EC50 (HCC1806+HA-CREB3L1 cells): 1.2 ± 0.4 nM
- EC50 (HCC1806 cells; [14]): 1.2 ± 0.5 nM

SMILES: CC(=O)c1c(C)c2cnc(Nc3ccc(N4CCNCC4)cn3)nc2n(C2CCCC2)c1=O [Palbociclib Isethionate, palbociclib isethionate]
- cytotoxicity towards non-tumorigenic MCF10A cells as compared to HCC1806 cells (MCF10A cells): very sensitive
- EC50 (T47D + HA-CREB3L1; [3]): 7200 ± 9200 nM
- EC50 (T47D; [4]): 13000 ± 9800 nM
- EC50 (BT549; [5]): 12600 ± 4800 nM
- EC50 (HCC38; [6]): 210 ± 70 nM
- EC50 (MCF7; [7]): 4400 ± 3500 nM
- EC50 (Hs578T; [8]): 3200 ± 1400 nM
- EC50 (HCC1428 + HA-CREB3L1; [9]): 160 ± 250 nM
- EC50 (HCC1395; [10]): 4000 ± 2000 nM
- EC50 (ZR-75-1; [11]): 710 ± 350 nM
- EC50 (HCC1806+HA-CREB3L1 cells): 1300 ± 490 nM
- EC50 (MDA-MB-436; [12]): 17000 ± 14000 nM
- EC50 (HCC1428; [13]): 21 ± 15 nM
- EC50 (HCC1806 cells; [14]): 500 nM
- cytotoxicity towards CREB3L1-deficient HCC1806 as compared to HCC1806+HA-CREB3L1 cells (HCC1806 cells; drug titration, 4 days, FIG. 2): showed a preference for killing the more metastatic CREB3L1-deficient HCC1806 TNBC cells

SMILES: Cc1c(-c2c(-c3ccc(F)o3)sc3ncnc(O[C@H](Cc4ccccc4OCc4ccnn4CC(F)(F)F)C(=O)O)c23)ccc(OCCN2CCN(C)CC2)c1Cl [S63845]
- synergistic activity with docetaxel (TNBC): synergistic activity

SMILES: CC(=O)O[C@H]1C[C@H](O[C@H]2[C@@H](O)C[C@H](O[C@H]3[C@@H](O)C[C@H](O[C@H]4CC[C@@]5(C)[C@H](CC[C@@H]6[C@@H]5C[C@@H](O)[C@]5(C)[C@@H](C7=CC(=O)OC7)CC[C@]65O)C4)O[C@@H]3C)O[C@@H]2C)O[C@H](C)[C@H]1O[C@@H]1O[C@H](CO)[C@@H](O)[C@H](O)[C@H]1O [Lanatoside C, lanatoside C]
- cytotoxicity towards non-tumorigenic MCF10A cells as compared to HCC1806 cells (MCF10A cells): very sensitive
- EC50 (T47D + HA-CREB3L1; T47D): 89 ± 34 nM
- EC50 (T47D; T47D): 500 ± 50 nM
- EC50 (BT549): 42 ± 12 nM
- EC50 (HCC38; HCC38, 96 h): 300 ± 100 nM
- EC50 (MCF7; MCF7, 96 h): 450 ± 490 nM
- EC50 (Hs578T): 1000 ± 800 nM
- EC50 (HCC1428 + HA-CREB3L1; HCC1428, 96 h): 32 ± 8 nM
- EC50 (HCC1395; HCC1395, 96 h): 510 ± 300 nM
- EC50 (ZR-75-1; ZR-75-1, 96 h): 650 ± 510 nM
- EC50 (MDA-MB-436; MDA-MB-436, 96 h): 460 ± 250 nM
- EC50 (MDA-MB-157): 550 ± 240 nM
- drug sensitivity of HCC1428 as compared to the corresponding CREB3L1-expressing cells (HCC1428): the opposite was true
- EC50 (HCC1428; HCC1428, 96 h): 35 ± 8 nM
- cytotoxicity towards CREB3L1-deficient HCC1806 as compared to HCC1806+HA-CREB3L1 cells (HCC1806 cells): showed a preference for killing the more metastatic CREB3L1-deficient HCC1806 TNBC cells
- EC50 (HCC1806 cells; Homo sapiens, HCC1806, 96 h): 143 nM

SMILES: Nc1nc(Cl)nc2c1ncn2[C@H]1C[C@H](O)[C@@H](CO)O1 [Cladribine, cladribine]
- cytotoxicity towards non-tumorigenic MCF10A cells as compared to HCC1806 cells (MCF10A cells): Little or no cytotoxicity
- EC50 (T47D + HA-CREB3L1; [3]): 1800 ± 1300 nM
- EC50 (T47D; [4]): 9600 ± 1800 nM
- EC50 (BT549; [5]): 178 ± 84 nM
- EC50 (HCC38; [6]): 65 ± 56 nM
- EC50 (MCF7; [7]): 3400 ± 2100 nM
- EC50 (Hs578T; [8]): 5700 ± 1200 nM
- EC50 (HCC1428 + HA-CREB3L1; [9]): 2200 ± 1700 nM
- EC50 (HCC1395; [10]): 10100 ± 1200 nM
- EC50 (ZR-75-1; [11]): 750 ± 350 nM
- EC50 (HCC1806+HA-CREB3L1 cells): 182 ± 60 nM
- EC50 (MDA-MB-436; [12]): 660 ± 180 nM
- EC50 (MDA-MB-157; read-out: EC50): 5000 ± 4300 nM
- drug sensitivity of HCC1428 as compared to the corresponding CREB3L1-expressing cells (HCC1428): increased drug sensitivity
- EC50 (HCC1428; [13]): 740 ± 330 nM
- EC50 (HCC1806 cells; [14]): 92 nM
- cytotoxicity towards CREB3L1-deficient HCC1806 as compared to HCC1806+HA-CREB3L1 cells (HCC1806 cells; drug titration, 4 days, FIG. 2): showed a preference for killing the more metastatic CREB3L1-deficient HCC1806 TNBC cells
